# pEC50: −log10 of the molar value. Counter-ions that a name gives are not always drawn. Like-named read-outs stand apart in the source and are kept apart here. Marks after values point to notes of the source that are not given here.
# What was measured:
# [1] = molecular target: human 5-HT2A (Homo sapiens (Human), UniProt P28223); assay: cell-based; format: cell-based; details: for 5-HT2A Rmax ± S.E.M: % of the Rmax of 5-HT; for Selectivity EC50 5-HT2C/EC50 5-HT2A: Ca2+/Fluo-4 assay, bounds are conservative estimates; for pEC50 / EC50: agonist potency, n = 3-4; for pEC50: read-out: 5-HT2A EC50; for EC50: read-out: 5-HT2A [pEC50 ± S.E.M.] (converted)
# [2] = molecular target: 5-HT2C (Homo sapiens (Human), UniProt P28335); assay: Ca2+/Fluo-4 assay, stable h5-HT2C-HEK293 cell line; format: cell-based; details: for 5-HT2C Rmax ± S.E.M: % of the Rmax of 5-HT; for pEC50 / EC50: agonist potency, n = 3-4; for pEC50: read-out: 5-HT2C EC50;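 as to all read-outs here: Agonist-induced intracellular Ca2+ rise read by Fluo-4 fluorescence in HEK293 cells stably expressing the human 5-HT2C receptor, each compound run in duplicate on three or more occasions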
# Sequence of 5-HT2C (P28335 whole entry, looked up): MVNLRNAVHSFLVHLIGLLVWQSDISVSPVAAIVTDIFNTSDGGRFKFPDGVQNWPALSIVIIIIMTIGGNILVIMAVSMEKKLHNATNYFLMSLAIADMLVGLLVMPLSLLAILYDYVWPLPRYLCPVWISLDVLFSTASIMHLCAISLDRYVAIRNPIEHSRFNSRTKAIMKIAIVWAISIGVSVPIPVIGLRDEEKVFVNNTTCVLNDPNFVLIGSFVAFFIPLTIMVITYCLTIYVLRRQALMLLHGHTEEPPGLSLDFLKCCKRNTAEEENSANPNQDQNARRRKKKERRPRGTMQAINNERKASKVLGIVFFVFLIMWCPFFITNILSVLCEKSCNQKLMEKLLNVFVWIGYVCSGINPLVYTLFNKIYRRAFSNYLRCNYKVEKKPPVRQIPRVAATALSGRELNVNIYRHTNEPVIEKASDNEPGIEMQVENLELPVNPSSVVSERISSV
# Protocol: The functional properties of the compounds were characterised at stable HEK293 cell lines stably expressing the human 5-HT2A receptor or human 5-HT2C receptor in the Ca^2+/Fluo-4 assay essentially as previously described.^10 Briefly, the cells were split into poly-D-lysine-coated black 96-well plates with clear bottoms (6×10^4 cells/well). The following day the culture medium was aspirated and the cells were incubated in 50 μl assay buffer [Hanks Buffered Saline Solution containing 20 mM HEPES, 1 mM CaCl2, 1 mM MgCl2, 2.5 mM probenecid, pH 7.4] supplemented with 6 mM Fluo-4/AM at 37° C. for 1 hour. Next, the buffer was aspirated, the cells were washed once with 100 μl assay buffer, and then 100 μl assay buffer was added to the cells (in the antagonist experiments the compound was added at this point). […] The compounds were characterized in duplicate at least three times at each cell line.
SMILES,5-HT2A Rmax ± S.E.M [1],Selectivity EC50 5-HT2C/EC50 5-HT2A [1],pEC50 [1],EC50 [1] [µM],pEC50 [2],also measured
"COc1cc([C@@H]2CCCNC2)ccc1C(F)(F)F.Cl [Compound 49, (S)-3-(3-methoxy-4-(trifluoromethyl)phenyl)piperidine Hydrochloride]",65 ± 3%,0.51,5.60,2.45,5.89,5-HT2C Rmax ± S.E.M [2]: 35 ± 3%; EC50 ([2]; read-out: 5-HT2C [pEC50 ± S.E.M.] (converted)): 1260 nM
"COc1cc(C(F)(F)F)c(OC)cc1[C@H]1CCCN(C)C1 [Compound 60, (R)3-(2,5-dimethoxy-4-(trifluoromethyl)phenyl)-1-methylpiperidine]",53 ± 8%,,5.96,,,5-HT2C agonist activity (n.a./w.a.) ([2]; tested up to 50 μM): w.a.
"COc1cc([C@H]2CCCNC2)c(OC)cc1C#N [Compound 15, (R)-2,5-dimethoxy-4-(piperidin-3-yl)benzonitrile]",,,5.66,,~5.00,5-HT2C Rmax ± S.E.M [2]: ~13-17^c %
"COc1cc(C(F)(F)F)c(OC)cc1[C@H]1CCCNC1 [Compound 7, (R)-3-(2,5-Dimethoxy-4-(trifluoromethyl)phenyl)piperidine hydrochloride]",,,,,6.07,
"COc1cc(C(F)(F)F)c(OC)cc1[C@@H]1CCCN(C)C1 [Compound 61, (S)-3-(2,5-dimethoxy-4-(trifluoromethyl)phenyl)-1-methylpiperidine]",19 ± 2%,,6.41,0.398,6.04,loss of potency at 5-HT2A compared to compound 8 (factor) ([1]; nitrogen substituents (tertiary amines)): ~20
"COc1cc(C(F)(F)F)c(SC)cc1[C@H]1CCCNC1.Cl [Compound 44, (R)-3-(2-methoxy-5-(methylthio)-4-(trifluoromethyl)phenyl)piperidine hydrochloride]",96 ± 6%,9.3,7.15,,6.18,5-HT2C Rmax ± S.E.M [2]: 50 ± 2%
"CCOc1cc([C@H]2CCCNC2)c(OC)cc1CC.Cl [Compound 33, (R)-3-(5-ethoxy-4-ethyl-2-methoxyphenyl)piperidine hydrochloride]",89 ± 4%,>10^e,5.96,1.12,,
"COc1cc([C@H]2CCCNC2)c(OC)cc1SC(C)C [Compound 25, (R)-3-(4-(isopropylthio)-2,5-dimethoxyphenyl)piperidine]",,,6.54,,,
"CCOc1cc(C(F)(F)F)c(OCC)cc1[C@H]1CCCNC1.Cl [Compound 21, (R)-3-(2,5-diethoxy-4-(trifluoromethyl)phenyl)piperidine hydrochloride]",69 ± 4%,>10^e,5.52,,,
"COc1cc(CCNCc2ccccc2O)c(OC)cc1C#N [drawing 23, reference compound]",,,,,,EC50 ([2]; 5-HT2C EC50 (nM)): 47 nM; 5-HT2C Rmax ± S.E.M [2]: 96 ± 7%
"COc1cc([C@H]2CCCNC2)ccc1C(F)(F)F.Cl [Compound 48, (R)-3-(3-methoxy-4-(trifluoromethyl)phenyl)piperidine hydrochloride]",68 ± 7%,>50^e,5.74,,,
"CCOc1cc(CC)c(OC)cc1[C@H]1CCCNC1 [Compound 42, (R)-3-(2-ethoxy-4-ethyl-5-methoxyphenyl)piperidine]",80 ± 9%,>10^e,5.82,,,
"CCOc1cc([C@H]2CCCNC2)c(OC)cc1C(F)(F)F.Cl [Compound 19, (R)-3-(5-ethoxy-2-methoxy-4-(trifluoromethyl)phenyl)piperidine hydrochloride]",86 ± 6%,,6.49,0.316,,
"COc1cc([C@H]2CCCNC2)c(OC)cc1I [Compound 13, (R)-3-(4-Iodo-2,5-dimethoxyphenyl)piperidine]",,,6.59,0.263,,
"CCOc1cc([C@H]2CCCNC2)c(OCC)cc1CC.Cl [Compound 40, (R)-3-(2,5-diethoxy-4-ethylphenyl)piperidine hydrochloride]",~61-74^c %,>3^e,5.00 to 5.15,,,
